Results reported in US20170128519A1, “CASPASE INHIBITORS FOR THE TREATMENT OF COLORECTAL CANCER” (Conatus Pharmaceuticals, Inc., priority 2015, published 2017).

Test system: HT-29 cells
Test: crystal violet assay of adherent HT-29 cells after 5-FU treatment
Type: cell-based, human
Experimental: 5-Fluoruracil (5-FU) was from Sigma Aldrich, Necrostatin-1 was from Enzo Life Sciences. HAT-29 human CRC cell line was obtained from ATCC after cell line authentication utilizing short tandem repeat (STR) profiling. Within four weeks all cell lines were expanded and frozen in aliquots. Cell lines were reauthenticated and regularly tested for contamination as provided by the German Cancer Research Center (DKFZ) Core Facility (Heidelberg). Cells were cultured in RPMI-1640 medium (Biochrom) containing 10% FCS (PAA Laboratories) and 1% penicillin/streptomycin at 5% CO2 and 37° C.
HT-29 cells were incubated with 20 μM IDN-7314 and/or 20 μM Necrostatin (N) for 2 hours prior to treatment with 5-Fluoruracil (5-FU, 50 or 100 mg/ml). After 48 hours, the number of adherent cells was determined via crystal violet assay (RLU=relative light units). […] This effect could be abolished by the RIP1-specific kinase inhibitor, necrostatin, the reduced number of cells is due to induction of necrotic cell death.

SMILES: C[C@H](NC(=O)C(=O)Nc1c(F)cccc1F)C(=O)N[C@@H](CC(=O)O)C(=O)COc1c(F)c(F)cc(F)c1F [IDN-7314]
- number of adherent cells (crystal violet assay, RLU) (20 μM IDN-7314 for 2 hours prior to 5-FU (50 or 100 mg/ml), read after 48 hours): significantly reduced the number of adherent cells
- sensitization of colon cancer cells to chemotherapy-induced necrotic cell death (FIG. 1) (IDN-7314 with 5-FU): sensitizes colon cancer cells to chemotherapy-induced necrotic cell death

SMILES: CN1C(=O)C(Cc2c[nH]c3ccccc23)NC1=S (stereo not drawn) [necrostatin, Necrostatin-1, reference compound]
- effect of necrostatin on the reduction of adherent cells by IDN-7314 co-treatment (20 μM Necrostatin with 20 μM IDN-7314 for 2 hours prior to 5-FU (50 or 100 mg/ml), 48 hours): abolished
